Data reported in PubChem BioAssay AID2060488 (Molecular Pharmacology Branch, DTP, NCI, 2025).

System: 966289-007-R4-J1-PDC complex spheroid viability
Experiment: Anticancer human tumor 966289-007-R4-J1-PDC patient-derived pancreatic adenocarcinoma cell line growth inhibition [GQUAD]
Settings: for IC50: curve of first compound; for viability, T/C: stronger effect = lower value
Procedure, shortened: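 Tumor cells were grown as complex spheroids with HUVEC endothelial cells and mesenchymal stem cells as stroma. G-quadruplex stabilizers were combined with targeted agents over half-log dilutions from near the clinical Cmax, or from 10 microM.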

[1] = second compound 0.0316 µM, first compound 0.0316 µM
[2] = second compound 0.0316 µM, first compound 0.316 µM
[3] = second compound 0.1 µM, first compound 0.0316 µM
[4] = second compound 0.1 µM, first compound 0.316 µM
[5] = second compound 0.316 µM, first compound 0.0316 µM
[6] = second compound 0.316 µM, first compound 0.316 µM
[7] = second compound 1 µM, first compound 0.0316 µM
[8] = second compound 1 µM, first compound 0.316 µM
[9] = second compound 3.16 µM, first compound 0.0316 µM
[10] = second compound 3.16 µM, first compound 0.316 µM
[11] = second compound 10 µM, first compound 0.0316 µM
[12] = second compound 10 µM, first compound 0.316 µM
[13] = second compound 0.0316 µM, first compound 0.1 µM
[14] = second compound 0.0316 µM, first compound 1 µM
[15] = second compound 0.0316 µM, first compound 3.16 µM
[16] = second compound 0.0316 µM, first compound 10 µM
[17] = second compound 0.1 µM, first compound 0.1 µM
[18] = second compound 0.1 µM, first compound 1 µM
[19] = second compound 0.1 µM, first compound 3.16 µM
[20] = second compound 0.1 µM, first compound 10 µM
[21] = second compound 0.316 µM, first compound 0.1 µM
[22] = second compound 0.316 µM, first compound 1 µM
[23] = second compound 0.316 µM, first compound 3.16 µM
[24] = second compound 0.316 µM, first compound 10 µM
[25] = second compound 1 µM, first compound 0.1 µM
[26] = second compound 1 µM, first compound 1 µM
[27] = second compound 1 µM, first compound 3.16 µM
[28] = second compound 1 µM, first compound 10 µM
[29] = second compound 3.16 µM, first compound 0.1 µM
[30] = second compound 3.16 µM, first compound 1 µM
[31] = second compound 3.16 µM, first compound 3.16 µM
[32] = second compound 3.16 µM, first compound 10 µM
[33] = second compound 10 µM, first compound 0.1 µM
[34] = second compound 10 µM, first compound 1 µM
[35] = second compound 10 µM, first compound 3.16 µM
[36] = second compound 10 µM, first compound 10 µM
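Also: spheroids exposed to the agents for seven days before readout.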
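For viability, T/C in this document: percent viability relative to DMSO vehicle control wells taken as 100%.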

For CCc1c2c(nc3ccc(O)cc13)-c1cc3c(c(=O)n1C2)COC(=O)[C@]3(O)CC + Cc1[nH]c2ccc(F)cc2c1-c1nc2c3cccnc3c3ncccc3c2[nH]1, the IC50 (second compound 0.0316 µM) was under 0.000999 µM, the IC50 (second compound 0.1 µM) was under 0.000999 µM and the IC50 (second compound 0.316 µM) was under 0.000999 µM. For the same molecule, the IC50 (second compound 1 µM) was under 0.000999 µM, the IC50 (second compound 3.16 µM) was under 0.000999 µM and the IC50 (second compound 10 µM) was under 0.000999 µM. It also gave a viability, T/C (second compound 0.0316 µM, first compound 0.000999 µM) of 20.7%, a viability, T/C (second compound 0.0316 µM, first compound 0.00316 µM) of 0.77% and a viability, T/C (second compound 0.0316 µM, first compound 0.00999 µM) of 0.82%. It also gave a viability, T/C [1] of 0.49%, a viability, T/C (second compound 0.0316 µM, first compound 0.0999 µM) of 0.89% and a viability, T/C [2] of 0.5%. For the same molecule, the viability, T/C (second compound 0.1 µM, first compound 0.000999 µM) was 17.3%, the viability, T/C (second compound 0.1 µM, first compound 0.00316 µM) was 0.75% and the viability, T/C (second compound 0.1 µM, first compound 0.00999 µM) was 0.91%. It also gave a viability, T/C [3] of 0.51%, a viability, T/C (second compound 0.1 µM, first compound 0.0999 µM) of 0.52% and a viability, T/C [4] of 0.36%. For the same molecule, the viability, T/C (second compound 0.316 µM, first compound 0.000999 µM) was 15.4%, the viability, T/C (second compound 0.316 µM, first compound 0.00316 µM) was 0.9% and the viability, T/C (second compound 0.316 µM, first compound 0.00999 µM) was 0.74%. For the same molecule, the viability, T/C [5] was 0.45%, the viability, T/C (second compound 0.316 µM, first compound 0.0999 µM) was 0.43% and the viability, T/C [6] was 0.36%. For the same molecule, the viability, T/C (second compound 1 µM, first compound 0.000999 µM) was 14.3%, the viability, T/C (second compound 1 µM, first compound 0.00316 µM) was 1.12% and the viability, T/C (second compound 1 µM, first compound 0.00999 µM) was 0.71%. For the same molecule, the viability, T/C [7] was 0.56%, the viability, T/C (second compound 1 µM, first compound 0.0999 µM) was 0.34% and the viability, T/C [8] was 0.36%. The viability, T/C (second compound 3.16 µM, first compound 0.000999 µM) was 9.81%, the viability, T/C (second compound 3.16 µM, first compound 0.00316 µM) was 1.09% and the viability, T/C (second compound 3.16 µM, first compound 0.00999 µM) was 0.59%. For the same molecule, the viability, T/C [9] was 0.67%, the viability, T/C (second compound 3.16 µM, first compound 0.0999 µM) was 0.58% and the viability, T/C [10] was 0.4%. It also gave a viability, T/C (second compound 10 µM, first compound 0.000999 µM) of 5.35%, a viability, T/C (second compound 10 µM, first compound 0.00316 µM) of 1.12% and a viability, T/C (second compound 10 µM, first compound 0.00999 µM) of 0.71%. It also gave a viability, T/C [11] of 0.43%, a viability, T/C (second compound 10 µM, first compound 0.0999 µM) of 0.31% and a viability, T/C [12] of 0.38%.
In the case of COc1ccc([C@@H](O)c2cc(-c3ncnc4cc(N5CCOCC5)ccc34)c(F)cc2Cl)nn1 + Cc1[nH]c2ccc(F)cc2c1-c1nc2c3cccnc3c3ncccc3c2[nH]1, the IC50 (second compound 0.0316 µM) is reported as over 10 µM, the IC50 (second compound 0.1 µM) is reported as over 10 µM and the IC50 (second compound 0.316 µM) is reported as over 10 µM. It also gave an IC50 (second compound 1 µM) of over 10 µM, an IC50 (second compound 3.16 µM) of over 10 µM and an IC50 (second compound 10 µM) of over 10 µM. For the same molecule, the viability, T/C [1] was 106%, the viability, T/C [13] was 94.7% and the viability, T/C [2] was 108%. The viability, T/C [14] was 104%, the viability, T/C [15] was 112% and the viability, T/C [16] was 85.6%. For the same molecule, the viability, T/C [3] was 107%, the viability, T/C [17] was 101% and the viability, T/C [4] was 106%. For the same molecule, the viability, T/C [18] was 104%, the viability, T/C [19] was 111% and the viability, T/C [20] was 87.8%. The viability, T/C [5] was 94.5%, the viability, T/C [21] was 102% and the viability, T/C [6] was 104%. The viability, T/C [22] was 108%, the viability, T/C [23] was 111% and the viability, T/C [24] was 92.9%. For the same molecule, the viability, T/C [7] was 91.3%, the viability, T/C [25] was 98.4% and the viability, T/C [8] was 108%. The viability, T/C [26] was 106%, the viability, T/C [27] was 109% and the viability, T/C [28] was 87.8%. For the same molecule, the viability, T/C [9] was 100%, the viability, T/C [29] was 103% and the viability, T/C [10] was 109%. For the same molecule, the viability, T/C [30] was 108%, the viability, T/C [31] was 103% and the viability, T/C [32] was 70.7%. It also gave a viability, T/C [11] of 103%, a viability, T/C [33] of 103% and a viability, T/C [12] of 106%. It also gave a viability, T/C [34] of 102%, a viability, T/C [35] of 105% and a viability, T/C [36] of 56.3%.
Cc1cccc(N(C)C(=O)C2C(O)CCN2c2nc(C)cc(C(F)(F)F)c2C#N)c1 (stereo not drawn) + Cc1[nH]c2ccc(F)cc2c1-c1nc2c3cccnc3c3ncccc3c2[nH]1 gave an IC50 (second compound 0.0316 µM) of over 10 µM, an IC50 (second compound 0.1 µM) of over 10 µM and an IC50 (second compound 0.316 µM) of over 10 µM. It also gave an IC50 (second compound 1 µM) of over 10 µM, an IC50 (second compound 3.16 µM) of over 10 µM and an IC50 (second compound 10 µM) of over 10 µM. It also gave a viability, T/C [1] of 109%, a viability, T/C [13] of 90.5% and a viability, T/C [2] of 108%. It also gave a viability, T/C [14] of 90.6%, a viability, T/C [15] of 106% and a viability, T/C [16] of 104%. It also gave a viability, T/C [3] of 109%, a viability, T/C [17] of 98.6% and a viability, T/C [4] of 97.2%. It also gave a viability, T/C [18] of 101%, a viability, T/C [19] of 106% and a viability, T/C [20] of 103%. It also gave a viability, T/C [5] of 97.6%, a viability, T/C [21] of 104% and a viability, T/C [6] of 98.1%. It also gave a viability, T/C [22] of 104%, a viability, T/C [23] of 99.7% and a viability, T/C [24] of 106%. It also gave a viability, T/C [7] of 102%, a viability, T/C [25] of 96.8% and a viability, T/C [8] of 98.7%. For the same molecule, the viability, T/C [26] was 106%, the viability, T/C [27] was 97.2% and the viability, T/C [28] was 110%. For the same molecule, the viability, T/C [9] was 104%, the viability, T/C [29] was 104% and the viability, T/C [10] was 110%. The viability, T/C [30] was 107%, the viability, T/C [31] was 113% and the viability, T/C [32] was 114%. The viability, T/C [11] was 107%, the viability, T/C [33] was 102% and the viability, T/C [12] was 110%. It also gave a viability, T/C [34] of 104%, a viability, T/C [35] of 103% and a viability, T/C [36] of 113%.
O=C(c1cc(Cc2n[nH]c(=O)c3ccccc23)ccc1F)N1CCN(C(=O)C2CC2)CC1 + Cc1[nH]c2ccc(F)cc2c1-c1nc2c3cccnc3c3ncccc3c2[nH]1 gave an IC50 (second compound 0.0316 µM) of 4.59 µM, an IC50 (second compound 0.1 µM) of 4.39 µM and an IC50 (second compound 0.316 µM) of 3.3 µM. For the same molecule, the IC50 (second compound 1 µM) was 4.38 µM, the IC50 (second compound 3.16 µM) was 2.99 µM and the IC50 (second compound 10 µM) was 2.79 µM. For the same molecule, the viability, T/C [1] was 113%, the viability, T/C [13] was 102% and the viability, T/C [2] was 111%. The viability, T/C [14] was 101%, the viability, T/C [15] was 68.6% and the viability, T/C [16] was 11.5%. For the same molecule, the viability, T/C [3] was 107%, the viability, T/C [17] was 103% and the viability, T/C [4] was 111%. The viability, T/C [18] was 106%, the viability, T/C [19] was 64.1% and the viability, T/C [20] was 14.8%. It also gave a viability, T/C [5] of 93%, a viability, T/C [21] of 107% and a viability, T/C [6] of 106%. The viability, T/C [22] was 108%, the viability, T/C [23] was 51.4% and the viability, T/C [24] was 15%. For the same molecule, the viability, T/C [7] was 95.2%, the viability, T/C [25] was 101% and the viability, T/C [8] was 108%. The viability, T/C [26] was 109%, the viability, T/C [27] was 64.5% and the viability, T/C [28] was 13.1%. For the same molecule, the viability, T/C [9] was 104%, the viability, T/C [29] was 110% and the viability, T/C [10] was 111%. The viability, T/C [30] was 105%, the viability, T/C [31] was 47.2% and the viability, T/C [32] was 7.55%. It also gave a viability, T/C [11] of 104%, a viability, T/C [33] of 103% and a viability, T/C [12] of 112%. The viability, T/C [34] was 99.8%, the viability, T/C [35] was 44% and the viability, T/C [36] was 4.64%.
